In ChEMBL document CHEMBL1157872, “Theoretical models of pentamidine analogs activity based on their DNA minor groove complexes” (Eur J Med Chem, 2010):

Tests used:
Nucleic Acid [1] = experiment: Binding affinity to d(CGCGATATCGCG)2 dodecamer assessed as change in melting temperature; format: nucleic-acid assay
Nucleic Acid [2] = test system: Nucleic Acid

| SMILES | ΔTm (Nucleic Acid [1]) | ΔTm (Nucleic Acid [2]) |
| --- | --- | --- |
| N=C(N)c1ccc(NCCNCCNc2ccc(C(=N)N)cc2)cc1 | 5.48 °C | 5.84 °C |
| CCCNC(=N)c1ccc(-c2ccc(-c3ccc(C(=N)NCCC)cc3)o2)cc1 |  | 13 °C |
| Cn1cc(NC(=O)c2cc(NC(=O)CNC(=N)N)cn2C)cc1C(=O)NCCC(=N)N |  | 31 °C |
| CN(CCCCCN(C)c1ccc(C(=N)N)cc1)c1ccc(C(=N)N)cc1 | 1.1 °C | 1.17 °C |
| COc1cc(C(=N)N)cc(OC)c1OCCCCCOc1c(OC)cc(C(=N)N)cc1OC | 2.55 °C | 2.35 °C |
| N=C(N)c1ccc(OCCCCCOc2ccc(C(=N)N)cc2)cc1 | 6.58 °C | 4.65 °C |
| N=C(N)c1ccc(-c2ccc(-c3ccc(C(=N)N)cc3)o2)cc1 |  | 11.7 °C |
| CCCCNC(=N)c1ccc(OCCOCCOc2ccc(C(=N)NCCCC)cc2)cc1 | 3.3 °C | 3.84 °C |
| c1cc(-c2ccc(-c3ccc(C4=NCCN4)cc3)o2)ccc1C1=NCCN1 |  | 11.4 °C |
| N=C(N)c1ccc(OCCOCCOc2ccc(C(=N)N)cc2)cc1 | 4.2 °C | 2.92 °C |
| N=C(NC1CCCCC1)c1ccc(OCCOCCOc2ccc(C(=N)NC3CCCCC3)cc2)cc1 | 4.3 °C | 5.08 °C |
| CCN1CCN=C1c1ccc(-c2ccc(-c3ccc(C4=NCCN4CC)cc3)o2)cc1 |  | 1.9 °C |
| N=C(N)c1ccc(/N=N/Nc2ccc(C(=N)N)cc2)cc1 | 11.9 °C |  |
